From patent publication US8192962B2, “Processes for detecting toxic substances” (Daikin Industries, Ltd., priority 2001, dated 2012)

Test system: Genes belonging to other category
Test: DNA chip mRNA expression in yeast, genes belonging to other category (Table 9)
Format: cell-based, Saccharomyces cerevisiae S288C
Outline: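 Untreated cultures served as reference for log-phase S288C yeast given a growth-inhibiting, non-lethal toxicant dose for 2 h at 25° C. in YPD. Gene expression was measured on a whole-genome DNA chip from Cy3/Cy5-labeled cDNA.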

[Cl][Hg][Cl] [(3), HgCl2]
The level of expressed mRNA in the presence of chemical substance/The level of expressed mRNA in the absence of chemical substance (yeast gene YKL008C): 2.0 | The level of expressed mRNA in the presence of chemical substance/The level of expressed mRNA in the absence of chemical substance (yeast gene YKL013C): 1.4 | The level of expressed mRNA in the presence of chemical substance/The level of expressed mRNA in the absence of chemical substance (yeast gene YKL039W): 2.4 | The level of expressed mRNA in the presence of chemical substance/The level of expressed mRNA in the absence of chemical substance (yeast gene YKL096W): 8.1 | The level of expressed mRNA in the presence of chemical substance/The level of expressed mRNA in the absence of chemical substance (yeast gene YKL165C): 1.1 | The level of expressed mRNA in the presence of chemical substance/The level of expressed mRNA in the absence of chemical substance (yeast gene YKL193C): 1.1 | The level of expressed mRNA in the presence of chemical substance/The level of expressed mRNA in the absence of chemical substance (yeast gene YLR120C): 2.4 | The level of expressed mRNA in the presence of chemical substance/The level of expressed mRNA in the absence of chemical substance (yeast gene YLR136C): 0.6 | The level of expressed mRNA in the presence of chemical substance/The level of expressed mRNA in the absence of chemical substance (yeast gene YLR178C): 8.8 | The level of expressed mRNA in the presence of chemical substance/The level of expressed mRNA in the absence of chemical substance (yeast gene YLR250W): 1.0 | The level of expressed mRNA in the presence of chemical substance/The level of expressed mRNA in the absence of chemical substance (yeast gene YLR327C): 14.4 | The level of expressed mRNA in the presence of chemical substance/The level of expressed mRNA in the absence of chemical substance (yeast gene YLR356W): 4.9 | The level of expressed mRNA in the presence of chemical substance/The level of expressed mRNA in the absence of chemical substance (yeast gene YLR362W): 1.0 | The level of expressed mRNA in the presence of chemical substance/The level of expressed mRNA in the absence of chemical substance (yeast gene YLR391W): 2.9 | The level of expressed mRNA in the presence of chemical substance/The level of expressed mRNA in the absence of chemical substance (yeast gene YLR429W): 0.6 | The level of expressed mRNA in the presence of chemical substance/The level of expressed mRNA in the absence of chemical substance (yeast gene YMR004W): 1.3 | The level of expressed mRNA in the presence of chemical substance/The level of expressed mRNA in the absence of chemical substance (yeast gene YMR094W): 1.3 | The level of expressed mRNA in the presence of chemical substance/The level of expressed mRNA in the absence of chemical substance (yeast gene YMR104C): 2.2 | The level of expressed mRNA in the presence of chemical substance/The level of expressed mRNA in the absence of chemical substance (yeast gene YMR219W): 1.0 | The level of expressed mRNA in the presence of chemical substance/The level of expressed mRNA in the absence of chemical substance (yeast gene YMR226C): 1.4 | The level of expressed mRNA in the presence of chemical substance/The level of expressed mRNA in the absence of chemical substance (yeast gene YMR275C): 1.2 | The level of expressed mRNA in the presence of chemical substance/The level of expressed mRNA in the absence of chemical substance (yeast gene YMR276W): 1.5 | The level of expressed mRNA in the presence of chemical substance/The level of expressed mRNA in the absence of chemical substance (yeast gene YMR314W): 0.9 | The level of expressed mRNA in the presence of chemical substance/The level of expressed mRNA in the absence of chemical substance (yeast gene YNL006W): 1.3 | The level of expressed mRNA in the presence of chemical substance/The level of expressed mRNA in the absence of chemical substance (yeast gene YNL007C): 5.1 | The level of expressed mRNA in the presence of chemical substance/The level of expressed mRNA in the absence of chemical substance (yeast gene YNL093W): 0.4 | The level of expressed mRNA in the presence of chemical substance/The level of expressed mRNA in the absence of chemical substance (yeast gene YNL333W): 1.7 | The level of expressed mRNA in the presence of chemical substance/The level of expressed mRNA in the absence of chemical substance (yeast gene YNR010W): 0.5 | The level of expressed mRNA in the presence of chemical substance/The level of expressed mRNA in the absence of chemical substance (yeast gene YNR069C): 0.7 | The level of expressed mRNA in the presence of chemical substance/The level of expressed mRNA in the absence of chemical substance (yeast gene YOL013C): 1.0 | The level of expressed mRNA in the presence of chemical substance/The level of expressed mRNA in the absence of chemical substance (yeast gene YOL164W): 1.0 | The level of expressed mRNA in the presence of chemical substance/The level of expressed mRNA in the absence of chemical substance (yeast gene YOR036W): 1.4 | The level of expressed mRNA in the presence of chemical substance/The level of expressed mRNA in the absence of chemical substance (yeast gene YOR117W): 1.7 | The level of expressed mRNA in the presence of chemical substance/The level of expressed mRNA in the absence of chemical substance (yeast gene YOR124C): 1.3 | The level of expressed mRNA in the presence of chemical substance/The level of expressed mRNA in the absence of chemical substance (yeast gene YOR132W): 0.8 | The level of expressed mRNA in the presence of chemical substance/The level of expressed mRNA in the absence of chemical substance (yeast gene YOR157C): 1.2 | The level of expressed mRNA in the presence of chemical substance/The level of expressed mRNA in the absence of chemical substance (yeast gene YOR181W): 1.1 | The level of expressed mRNA in the presence of chemical substance/The level of expressed mRNA in the absence of chemical substance (yeast gene YOR185C): 1.9 | The level of expressed mRNA in the presence of chemical substance/The level of expressed mRNA in the absence of chemical substance (yeast gene YOR198C): 1.4 | The level of expressed mRNA in the presence of chemical substance/The level of expressed mRNA in the absence of chemical substance (yeast gene YOR259C): 0.8 | The level of expressed mRNA in the presence of chemical substance/The level of expressed mRNA in the absence of chemical substance (yeast gene YOR261C): 0.6 | The level of expressed mRNA in the presence of chemical substance/The level of expressed mRNA in the absence of chemical substance (yeast gene YOR288C): 1.1 | The level of expressed mRNA in the presence of chemical substance/The level of expressed mRNA in the absence of chemical substance (yeast gene YOR355W): 1.1 | The level of expressed mRNA in the presence of chemical substance/The level of expressed mRNA in the absence of chemical substance (yeast gene YOR383C): 2.6 | The level of expressed mRNA in the presence of chemical substance/The level of expressed mRNA in the absence of chemical substance (yeast gene YPL089C): 0.5 | The level of expressed mRNA in the presence of chemical substance/The level of expressed mRNA in the absence of chemical substance (yeast gene YPL109C): 0.5 | The level of expressed mRNA in the presence of chemical substance/The level of expressed mRNA in the absence of chemical substance (yeast gene YPL149W): 0.6 | The level of expressed mRNA in the presence of chemical substance/The level of expressed mRNA in the absence of chemical substance (yeast gene YPL154C): 4.2 | The level of expressed mRNA in the presence of chemical substance/The level of expressed mRNA in the absence of chemical substance (yeast gene YPR103W): 1.3 | The level of expressed mRNA in the presence of chemical substance/The level of expressed mRNA in the absence of chemical substance (yeast gene YPR108W): 1.3
